{"source": "patent US8691801B2", "about": "“Use of manzamine compounds in anti-cancer therapeutic regimens” (Florida Atlantic University Board of Trustees, priority 2006, dated 2014)", "key": {"AsPC-1 cells [1]": {"system": "AsPC-1 cells", "assay_type": "cell-based", "text": "In Vitro Cell Invasion Assay. The invasiveness of AsPC-1 cells alone, treated with our test compounds or treated with U0126 as a positive control will be evaluated in 24-well transwell chambers, as described by Fu et al. “Effects of raf kinase inhibitor protein expression on suppression of prostate cancer metastasis”. […] Briefly, the upper and lower culture compartments of each well are separated by polycarbonate membranes (8-μm pore size). To determine baseline migration, 2.5×10^4 cells in 0.5 mL of complete medium containing 5% FBS are placed into the upper compartment of uncoated wells (BD Discovery Labware, San Diego, Calif.), and 0.75 mL of complete medium containing 10% FBS are placed into the lower compartment. In parallel, to assess the ability of the same cells to penetrate a collagen matrix, the experiment is repeated using upper compartments coated with 100 μg/cm^2 of collagen matrix (BD Discovery Labware, San Diego, Calif.). The transwell chambers are incubated for 24 hours at 37 ° C. in 95% air and 5% CO2. Cell penetration through the membrane is detected by staining the cells on the porous membrane with a Diff-Quik stain kit' observing under the microscopic and capturing images with a digital camera."}, "AsPC-1 cells [2]": {"system": "AsPC-1 cells", "experimental": "(§1) TRAIL induced apoptosis. 12,000 AsPC-1 cells were plated on a 96-well tissue culture plate at a volume of 200 μl/well, allowing for twelve replicate wells per treatment. Cells were allowed to adhere for 24 hours. At the end of this incubation, 100 μl of medium were removed from each test well and 100 μl of medium containing treatment were added. Treatment consisted of media alone, media with methanol, 10 μM Manzamine A or 20 μg/m1 U0126. The cells were then incubated for 48 hours at 37° C. and 5% CO2. After this incubation, half of the wells of each treatment were incubated with 100 ng/ml Super Killer TRAIL (Alexis, San Diego, Calif.) for 18 hours at 37° C. and 5% CO2. At the end of this incubation, 75 μl of a 5 mg/ml MTT solution were added to each well. The cells were then incubated for 3 hours at 37° C. The plates were centrifuged for 10 minutes at 800 rpm. The supernatant was removed and 200 μl acidified isopropyl alcohol (1:500 solution of hydrochloric acid to isopropanol) were added to each well. The plates were shaken for 15 minutes. The absorbencies of these solutions were measured at 570 nm with a plate reader (NOVOstar, BMG Labtech Inc., Durham, N.C.). The resulting absorbencies were plotted using Microsoft Excel. […]"}, "AsPC-1 cells [3]": {"system": "AsPC-1 cells", "assay": "Morphological changes (cell dissociation) induced in AsPC-1 cells", "assay_type": "cell-based", "protocol": "Cell Culture Conditions for the AsPC-1 pancreatic adenocarcinoma cell line. AsPC-1, a pancreatic adenocarcinoma cell line, was obtained from ATCC, grown, aliquotted and frozen stocks were maintained in liquid nitrogen. Aliquots of the stock cells were thawed and grown in RPMI-1640 supplemented with 10% Fetal Bovine Serum, 0.11 mg/ml Sodium Pyruvate, 4.5 g/L D-glucose, 18 mM HEPES Buffer, 100 U/ml penicillin G sodium, 100 μg/ml streptomycin sulfate, 0.25 μg/ml amphotericin B, 2 mM L-glutamine and 50 μg/ml gentamicin (Complete RPMI). Cells were maintained in a humidified incubator at 37° C. and 5% CO2.\nAn observation was made that inhibiting the constitutive activation of MEK abrogates cell dissociation (Tan, X. et al., 2004 “Involvement of the mitogen-activated protein kinase kinase 2 in the induction of cell dissociation in pancreatic cancer” Int J Oncol 24(1):65-73), a precursor step in metastasis."}, "AsPC-1 cells [4]": {"system": "AsPC-1 cells", "assay": "Cell viability assay (MTT)", "assay_type": "cell-based", "details": "pancreatic cancer cells", "protocol": "Cell viability assays. A 3-[4,5-Dimethyl-2-thiazolyl]-2,5-diphenyl-2H-tetrazolium bromide (MTT) based assay was used to determine cell viability. […] Cells were allowed to adhere for 24 hours. […] Treatment consisted of 5 μM or 50 μM of Manzamine A, media alone, media with methanol, or 20 μg/ml U0126. […] After this incubation, 75 μl 5 mg/ml MTT were added to each well. […] The plates were shaken for 15 minutes. […] The resulting absorbencies were plotted using Microsoft Excel."}, "AsPC-1 cells [5]": {"system": "AsPC-1 cells", "assay": "TRAIL induced apoptosis (MTT readout)", "details": "10 μM manzamine A, 48 hours, without TRAIL", "experimental": "as §1"}}, "note": "Read-outs that look alike come from different tables or passages of the source."}
{"smiles": "N#CC(=C(/N)Sc1ccccc1N)/C(C#N)=C(\\N)Sc1ccccc1N", "note": "[U0126, reference compound]", "values": [{"measurement": "prevention of cell migration", "setting": "AsPC-1 cells [1]", "result": "prevented cell migration"}, {"measurement": "cytotoxicity of treatment alone", "setting": "AsPC-1 cells [2]", "result": "induced some cytotoxicity"}]}
{"smiles": "O[C@]12C=C(c3nccc4c3[nH]c3ccccc34)[C@@H]3CCN(CCCC/C=C\\CC1)C[C@@]31CC3/C=C\\CCCCN3[C@H]12", "note": "(some centres unmarked) [Manzamine A, manzamine A]", "values": [{"measurement": "abrogation of cell dissociation", "setting": "AsPC-1 cells [3]; AsPC-1 cells treated 48 hours with 1.25, 2.5, 5, 10 μM Manzamine A, microscopy", "result": "caused abrogation of cell dissociation similar to that caused by pMEK inhibitors"}, {"measurement": "abrogation of cell dissociation, dose dependence", "setting": "AsPC-1 cells [3]; AsPC-1 cells, 48 hours, 5 and 10 μM dose compared with 1.25 and 2.5 μM", "result": "stronger at the 5 and 10 μM dose"}, {"measurement": "dose needed for similar effects relative to U0126", "setting": "AsPC-1 cells [3]; effects on cell dissociation, migration and TRAIL resistance, manzamine A vs U0126", "result": "a fifth of the dose needed for U0126"}, {"measurement": "prevention of cell migration", "setting": "AsPC-1 cells [1]; AsPC-1 cells treated 48 hours, 5 and 10 μM Manzamine A, transwell, collagen matrix", "result": "prevented cell migration similar to that caused by the pMEK inhibitor U0126"}, {"measurement": "cytotoxicity at small doses", "setting": "AsPC-1 cells [4]", "result": "little cytotoxicity"}, {"measurement": "cytotoxicity of treatment alone", "setting": "AsPC-1 cells [5]", "result": "induced some cytotoxicity"}]}
